A melting point compilation (Tetko et al.; mined from patent text by program, amines drawn as free bases though some values may be those of a salt)

melting point | SMILES
> 268 °C | O=Cc1ccc(-c2cnc3cnc(-c4ccc(O)cc4)nc3c2)cc1
100 °C | Cc1ccc2cccc(OCc3c(Cl)ccc(S(=O)(=O)N(CCCCCCCC(=O)O)Cc4ccccc4)c3Cl)c2n1
115 to 117 °C | CCOC(=O)[C@H](Cc1ccc(-c2c(OC)cc(CCO)cc2OC)cc1)NC(=O)c1c(F)cccc1F
165 °C | Cc1cccc(NC(=O)NCC(=O)N(CC(=O)N(C)c2cccc(C)c2)c2ccccc2)c1
139 to 140 °C | COc1cc(C2=C(C(C)(C)C)C(C)(C)CO2)cc(OC)c1Br
154 to 156 °C | O=C(NCc1ccccc1)c1ccnc(N2CCN(Cc3ccncc3)C2=O)c1
51 to 53 °C | CC(Oc1cc(C(F)(F)F)cc(C(F)(F)F)c1)C(=O)O (centres undefined)
87 to 95 °C | Nc1ccc(S(=O)(=O)Nc2ccn(CC3CC3)c(=O)n2)cc1
145 to 148 °C | CCCc1nc2c(N)nc3cc(OCCc4ccc(F)cc4)ccc3c2s1
197 °C | N#CC(C(=O)c1ccc(NS(=O)(=O)C(F)(F)F)cc1)=C1CCCCN1
83 to 84 °C | CN(c1ccc(F)c(C(F)(F)F)c1)c1nccc(-c2ccc(F)c(C(F)(F)F)c2)n1
184 to 186 °C | CCOc1nccc(-c2c(-c3ccc(F)cc3)ncn2[C@H]2CC[C@H](O)CC2)n1
218 to 219 °C | COCCOc1cc(NS(=O)(=O)c2ccccn2)c2[nH]c(C3=NCC(CN4CCS(=O)(=O)CC4)S3)cc2c1 (centres undefined)
142 to 144 °C | O=C1NC(=O)C(Cc2cc(=O)n(Cc3ccc(Cl)cc3)c3ccccc23)S1 (centres undefined)
78 to 79 °C | C[C@H](C(=O)c1ccccc1F)n1ccn(-c2ccc(OC(F)(F)C(F)F)cc2)c1=O
237 to 239 °C | CSc1ccc2c(C(=O)C(F)(F)F)c[nH]c2c1
225 °C | COc1cc2ncc3c4cc5c(cc4ccc3c2cc1OC)OCO5
256 to 257 °C | COc1ccc2c(=O)n3c(cc2c1)S(=O)(=O)CCC3
123 to 125 °C | O=c1oc(-c2ccc(OCCO)cc2)cc(O)c1SCCc1ccccc1
94 to 95 °C | CCCCN1C[C@H](CO)[C@@H](O)[C@H](O)C1
128 to 131 °C | COC(=O)c1ccc(N=CC=Cc2ccccc2)cn1
241 °C | Cc1ccc2c(c1)C(c1ccccc1)CC(N1CCN(C3CC(c4ccccc4)c4cc(C)ccc4O3)CC1)O2 (centres undefined)

melting point | SMILES
253 to 256 °C | C[C@@H](Nc1ncnc2[nH]c(-c3ccc(CN)cc3)cc12)c1ccccc1
196 to 200 °C | O=C1CCN(C2c3ccccc3COc3ccc(Br)cc32)CC1 (centres undefined)
165 to 168 °C | N#CN1CCC2(CC1)Oc1ccccc1C2n1cccc1 (centres undefined)
163 to 164 °C | O=CC(c1ccccc1)c1nc(-c2ccncc2)cs1 (centres undefined)
203 to 204 °C | COc1ccccc1-n1c(=O)[nH]c2c(C(N)=O)nc(-c3ccc4cc[nH]c4c3)nc21
230 to 231 °C | CC(C)(C)n1nnc(NC(=O)C2c3ccccc3Oc3ccccc32)n1
82 to 84 °C | COC(=O)[C@H]1[C@@H](N=[N+]=[N-])C(=O)N1Cc1ccc(OC)cc1OC (relative stereo)
216 °C | CCOC(=O)c1c(-c2ccc(OC)cc2)c2oc3ccc(-c4ccccc4)cc3c2n(Cc2cc(OC)ccc2OC)c1=O
182 to 184 °C | CC(=O)c1ccc2c(c1)C(NC(=NC#N)Nc1ccccc1)C(O)C(C)(C)O2 (centres undefined)
214 to 217 °C | O=C(O)c1ccccc1Nc1c(O)ccc2ccccc12
120 °C | CC(=O)NC[C@@H]1C[C@H]1c1c(F)ccc2nn(C)cc12 (relative stereo)
169 to 171 °C | CCN(CC)c1ccc2cc(C=CC(=O)c3c(N(CC)CC)c4ccccc4oc3=O)oc2c1
179 °C | OC1CSC(Oc2cccc(-c3cccnc3)n2)C(O)C1O (centres undefined)
117 to 119 °C | COC(=O)C(C(=O)OC)C(Cc1c([N+](=O)[O-])cccc1C(F)(F)F)c1ccc(OC)cc1 (centres undefined)
234 °C | CC(C)(C)c1cc(-c2cc(C(C)(C)C)cc(-n3nc4ccccc4n3)c2O)c(O)c(-n2nc3ccccc3n2)c1
165 to 168 °C | CCc1ccc2c(c1)C(=O)N(CCCCN1CCC(n3c(=O)oc4ccccc43)CC1)S2(=O)=O
94 to 97 °C | CN(CCC1CCN(c2noc3cc(F)ccc23)CC1)C(=O)c1noc2ccccc12
71 to 73 °C | O=C(CCCCCCN(Cc1ccccc1)C(=O)c1cn2c3c(cccc13)CCC2)NO
163 to 166 °C | O=Cc1cccc(OC(=O)C(=O)Oc2cccc(C=O)c2)c1
259 °C | O=C(CN1CCOCC1)Nc1cccc2c1C(=O)c1c-2n[nH]c1-c1ccc(N2CCNCC2)cc1
104 to 107 °C | CCCCCCCCCCCCCCCCS(=O)(=O)Nc1cccc2ccc(O)cc12
79 to 81 °C | Cc1cc(SCc2cccc3cn(-c4ccc(C(F)(F)F)cc4)nc23)ccc1OCC(=O)O

melting point | SMILES
> 260 °C | COc1ccc(OC)c2c1C(=O)c1c-2[nH]c2ccc(O)cc12
116 to 119 °C | O=c1cc(-c2ccccc2)oc2cc(OCC(O)CNCCCCc3cccnc3)ccc12 (centres undefined)
77 to 79 °C | Cc1cc2cc(OCCCCBr)ccc2[nH]1
183 to 185 °C | CC1(C)COC(=O)N1c1nc(-c2ccc(C#N)cc2)cs1
265 to 273 °C | CC1CNc2nc3c(N)nc4ccccc4c3n21 (centres undefined)
87 to 88 °C | CCN(CC)c1nsc(N)c1C#N
> 300 °C | CNc1nc(C2C(=O)Nc3ccc(C(F)(F)F)cc32)c2cn(C3CCCC3)nc2n1 (centres undefined)
206 to 209 °C | CC1CCCCC1NC(=O)[C@@H](C)NC(=O)[C@@H](N)CC(=O)O (some centres undefined)
249 to 250 °C | Nc1nc(N)c2c(ccc3c2ccn3Cc2ccc(Cl)cc2Cl)n1
164 °C | COCc1cnc2c(NC(=O)c3c(Cl)cccc3Cl)cccc2c1CCl
93 to 95 °C | C=C(C)c1cccc(C(C)(C)NSc2nc3ccccc3s2)c1
154 to 157 °C | CCCCCCCCOC(=O)CCP(=O)(CCC(N)=O)Cc1cc(C(C)(C)C)c(O)c(C(C)(C)C)c1 (centres undefined)
100 to 104 °C | CN1C(=O)CC[C@]2(C)c3ccc(-c4cccc5ncccc45)cc3CC[C@@H]12
100 to 102 °C | C=C1CN(c2c(F)cc3c(=O)c(C(=O)O)cn([C@@H]4C[C@@H]4F)c3c2OC)C[C@@]1(C)N
110 to 111 °C | O=[N+]([O-])c1cn(-c2cncc(F)c2)nc1Cl
198 to 200 °C | O=C(O)c1nc2cc(Oc3cccc([N+](=O)[O-])c3)c([N+](=O)[O-])cc2[nH]c1=O
136 to 138 °C | CC(=O)Nc1nc(C)c(CCC(C)c2ccc(Cl)cc2)c(NC(C)=O)n1 (centres undefined)
114 to 115 °C | CC1(C)CCCN(C2c3cc4nonc4cc3OC(C)(C)C2O)C1=O (centres undefined)
98 to 100 °C | CCCCCNC(=N)NC(N)=S
> 240 °C | CN1C(=O)CC[C@]2(C)c3ccc(-c4ccc(O)c(F)c4)cc3CC[C@@H]12
235 to 239 °C | CCNC(=O)c1cc(N)c([N+](=O)[O-])cc1OC
210 to 212 °C | O=C(O)C(Cc1ccc(OCCn2c(-c3ccccc3)nc3ccccc32)cc1)n1cccc1 (centres undefined)

melting point | SMILES
248 to 250 °C | CCCCc1nc2c(N)nc3cccnc3c2n1CCNC(=O)c1cc(C(C)(C)C)c(O)c(C(C)(C)C)c1
93 °C | CCCN(CCCCNC(=O)NC1Cc2ccccc2C1)C1CCc2ncsc2C1 (centres undefined)
219 to 221 °C | Cn1c(=O)oc2c3ncccc3c(Cl)cc21
256 to 258 °C | O=C(Nc1ccc(-c2cnc(-c3ccc(NC(=O)C4CCCCCC4)cc3)[nH]2)cc1)c1cccnc1
211 to 213 °C | N#Cc1ncn2c1[C@@H]1CCN1C(=O)c1sccc1-2
192 °C | CCCCC(c1ccc2[nH]c(=O)c(-c3ccccc3)nc2c1)n1ccnc1 (centres undefined)
105 to 107 °C | CCOC(=O)C(Cc1ccc(OCCn2c(=O)sc3cc(C(=NO)C4CC4)ccc32)cc1)OCC(F)(F)F (centres undefined)
219 to 220 °C | CCOC(=O)Nc1nc(=O)c2cnn3c2n1CC=C3c1cccc(C(F)(F)F)c1
126 to 128 °C | Nc1ccc(-c2cnns2)cc1
192 to 193 °C | COc1ccc2c3c([nH]c2c1)CC(NC(C)=O)CC3 (centres undefined)
146 °C | Clc1ccc(-c2ncn(CC3CC3)c2-c2ccncc2)cc1Cl
150 to 151 °C | N#CCCNC(=O)c1cccc(-c2cccc(Oc3ccc4[nH]ccc4c3)n2)c1
211 to 213 °C | CCc1nc(/C=C/c2cn(-c3ccccc3)nc2OCc2ccc(OCc3nc(-c4cccc(C(=O)NS(C)(=O)=O)c4)oc3C)c(OC)c2)cs1
272 to 274 °C | CC(C)(C)c1ccc(C(=O)Nc2cn3cc(-c4cccnc4)ccc3n2)cn1
130 to 132 °C | CCCCCCCCCC1C=CC(Oc2ccc(C(=O)O)o2)=C2N=C3CCCCC3=C21 (centres undefined)
153 to 154 °C | CC(C)c1cccc(C(C)C)c1NC(=O)CN1CCN(CCSc2nc3ncccc3o2)CC1
102 to 105 °C | O=Cc1ccc(NCc2cccc(Cl)c2)cn1
164 to 166 °C | COc1ccc(-n2cnc3ccc(-c4nnc(NCc5cccc(F)c5)o4)cc32)cc1
121 °C | CC(NC(=O)C(CS)C1CCc2ccccc21)C(=O)O (centres undefined)
161 to 163 °C | COc1ccc(Nc2nc(N)c3[nH]c(C)cc3n2)cc1
188 to 200 °C | Cc1cc(=O)n(-c2cc(C(=O)OC(C)C)c(C#N)cc2F)c(=O)n1C

SMILES | melting point
CC1Cc2cc3c(cc2C(c2ccc([N+](=O)[O-])cc2)=NN1C(=O)C(C)(C)C)OCO3 (centres undefined) | 164 to 166 °C
O=C1NCCN1CC#CCN1CCCC1 | 71 to 75 °C
O=[N+]([O-])c1cc(C2=NOC(c3cc(Cl)cc(Cl)c3)(C(F)(F)F)C2)ccc1-n1cncn1 (centres undefined) | 64 to 72 °C
c1cc(N2CCNCC2)c2nccnc2c1 | 106 to 108 °C
FC(F)(F)C1(c2cc(Cl)cc(Cl)c2)CC(c2ccc(Br)c3ccccc23)=NO1 (centres undefined) | 127 to 130 °C
CC1=NCC2CC(=O)N(c3ccccc3)c3cc(Cl)ccc3N12 (centres undefined) | 248 to 251 °C
COC1N=C(c2ccccc2)c2cc(Cl)ccc2-n2nc(C(N)=O)nc21 (centres undefined) | 264 to 267 °C
